Measured values published in US20250177448A1, “NEW USE OF PEG-PHOSPHOLIPID MOLECULES” (ICOAT MEDICAL AB, priority 2022, published 2025).
“Also recorded” adds a separate entry of the source.

Legend:
blood group B antigen = experiment: Anti-blood group B antigen antibody binding to coated human erythrocytes, flow cytometry; format: cell-based; settings: blood type B RBCs, 2 mg/ml in PBS, 30 min room temperature
Description: Human erythrocytes were isolated from healthy human donors. They were pre-selected for specific blood types and only individuals exposing blood type B antigens were used. Human blood was drawn from the donors using a vacuum blood collection tube (5 mL, EDTA-2Na treated, TERUMO Co., Tokyo, Japan).
After plasma and buffy coat were removed by centrifugation (15 min, 2500×g, 3 times), the erythrocytes were re-suspended in cold PBS.
This Example was approved by ethical committee of the University of Tokyo (KE17-13). Human red blood cells (RBC) were isolated from whole blood of a type-B donor and suspended in phosphate-buffered saline (PBS). A cell pellet of RBCs (5×10^7 cells) was incubated with PEG-phospholipid (20 μl, 2 mg/ml in PBS) or PBS (50 μl, as control) for 30 min at room temperature (RT, 20-25° C.) with gentle mixing. After wash with PBS by centrifugation (120×g, 4° C., 1 min) twice, Alexa488-labeled anti-blood group B antigen antibody (10 μl, used without dilution, Blood Group B antigen antibody [HEB-29], GeneTex) or PBS (10 μl) was mixed with the treated RBCs for 10 min at RT. After washing with PBS by centrifugation (120×g, 4° C., 1 min), RBC were re-suspended with PBS (1 ml) for flow cytometry measurements. […] Post analysis processing was carried out in FlowJo (BD).

[1] = system: Rhesus factors D, C, c, E and e on erythrocytes; experiment: Agglutination test and Rh phenotyping of coated erythrocytes; format: cell-based; settings: 2 mg/ml final, 30 min 37° C.; one O Rh+ and two A Rh+ blood samples; vs untreated control
Description: Whole blood samples (one O, Rh+ blood sample and two A Rh+ blood samples) from the blood center were centrifuged in Eppendorf tubes in an Eppendorf 5810R centrifuge at 2500 rpm for 10 min at room temperature (20-25° C.) and the plasma was removed and discarded. The cell fractions were subject to three washing steps in 50 ml falcon tubes. Each washing step involved adding 45 ml phosphate buffered saline (PBS) to 1 ml cell fraction followed by centrifugation at 2500 rpm for 10 minutes at room temperature.
100 μl cell suspension was mixed with 900 μl PBS and 1000 μl PEG-phospholipid (4 mg/ml, polyethylene glycol-phospholipid with PEG of 5 kDa (PEG-phospholipid) in PBS, SUNBRIGHT® PP-050CN, N-(methylpolyoxyethylene oxycarbonyl)-1,2-dipalmitoyl-sn-glycero-3-phosphoethanolamine, sodium salt, NOF Corp., Japan) to coat the erythrocytes with 2 mg/ml PEG-phospholipid (final concentration) or 1000 μl PBS as control. The erythrocyte samples were incubated 30 min at 37° C. in an incubator under rotation in a POL-EKO laboratory incubator. The erythrocyte samples were washed three times with 2 ml PBS and centrifuged at 2500 rpm for 5 min at room temperature in a Heraeus Biofuge Pico centrifuge.
The washed erythrocyte samples were then subject to an agglutination test and Rh phenotyping. […]

Concanavalin A = settings: HUVEC, 0.5 mg/ml, without plasma exposure
Description: HUVEC cells were cultured with endothelial cell culture medium with supplements (Promocell) in cell culture flasks (Thermofisher Scientific) and Petri dishes (NUNC). The cells were detached using trypsin EDTA buffer for flowcytometry analysis (BD accuri C6 Serial no. 5173). The cells were rinsed with PBS (10 mL) by centrifugation (120×g, 4° C., 3 min) once and fresh medium was added to the detached cells.
In addition, HUVEC cells were incubated with PEG-phospholipid (0.5 mg/ml), with 10 mM free PEG (5 kDa), or PBS (control) at RT for 45 min followed by washing with PBS, and incubation in human serum with EDTA-plasma as control, both diluted 1:50 in PBS, for 30 min at 37° C. After washing, lectin pathway recognition molecules collectin-11 (CL-11), and mannan binding lectin (MBL), were detected using the FITC-labelled and isotype control antibodies as given in Table 1. […] In addition, FITC-labelled concavalin A (a lectin of broad specificity) was incubated with coated and native HUVECs (without prior exposure to plasma) at a concentration of 50 g/ml.
After incubation with detecting antibodies, the cells were washed with PBS. All samples were analyzed on an Accuri C6 flow cytometer, unstained cells were used to gate the endothelial cell population. 10,000 events were recorded and additional controls in the form of isotype control and unstained control were ran in parallel. […]

[2] = Vascular and tubular distribution and detachment of PEG-phospholipid in vivo (transplanted pig kidney)
Description: Full information on donor and recipient pigs is given in Example 5. […] Four recipient pigs were transplanted with biotin-PEG-phospholipid-treated kidneys. Their native kidneys were not removed and remained in the animals throughout the study. The four recipient pigs were euthanized after 12, 24, 48 and 72 h, respectively and biopsies were taken at euthanasia from the biotin-PEG-phospholipid treated kidney and one of the native kidneys. Frozen sections (4 μm thickness) were incubated in Alexa488-streptavidin (GE Healthcare, 1:500) at RT for 10 min. The sections were analyzed by laser-scanning confocal microscopy (LSM510, META, Carl Zeiss, Germany).
Frozen sections (4 μm thickness) of kidneys treated with biotin-PEG-phospholipid and control kidneys were incubated in Alexa488-streptavidin (GE Healthcare, 1:500) at RT for 10 min. The sections were analyzed by laser-scanning confocal microscopy (LSM510, META, Carl Zeiss, Germany).

[3] = pig, in vivo
Description: Before surgery for both long term survival studies (SM and CLSM), samples were collected in EDTA tubes from both donors and recipients for analyses of total and differential white blood cell counts and hematology (EPK, Hb, EVF, MCV, MCHC, reticulocytes, thrombocytes). Plasma samples were analyzed for aspartate amino transferase (ASAT), alanine aminotransferase (ALAT), γ-glutamyltransferase (GT), glutamate dehydrogenase (GLDH), and creatinine at the Section of Clinical Chemistry, SLU, Uppsala.
Clinical appearance was assessed several times each day after surgery and a thorough clinical examination conducted once daily. The urinary bladders were examined every day at 9 am and […] to determine if the transplanted kidney produced urine. When possible, free-flow urine was collected and evaluated macroscopically, and density, pH, blood and protein were measured.
Each kidney was examined once after transplantation by ultrasound (Logiq e R6, GE Healthcare, Wauwatosa, U.S.A.) using linear (10 MHZ) and curvilinear (4 MHZ) probes. The length and echogenicity of the kidney as well as the corticomedullary definition were estimated. Furthermore, it was assessed whether the renal pelvic region was dilated. The blood flow in the kidney was evaluated using color Doppler. […]

Which “binding capacity of anti-blood group B antigen-antibody” value (blood group B antigen) does the source give for “N-(methylpolyoxyethylene oxycarbonyl)-1,2-dipalmitoyl-sn-glycero-3-phosphoethanolamine [PEG-phospholipid]” here?
Its value is “effectively reduced; also recorded: effective masking”.

What about the “agglutination of erythrocytes (Rhesus factor antigens)” value [1] of the same substance?
The value was “inhibited agglutination”.

What about the “binding of Concanavalin A” value (Concanavalin A) of the same substance?
Its value is “substantially reduced”.

And the “t½ of PEG-phospholipid calculated from fluorescence images” value ([2]; pig kidney, biotin-labeled PEG-phospholipid, 95% confidence interval 8-26)?
The value was 14 h.

What about the “systemic leakage of PEG-phospholipid (autologous kidneys of the recipient)” value ([2]; reliably detected only after 1 hour) of the same substance?
Its value is “very low”.

What about the “toxicity or safety concerns regarding clinical, laboratory, or pathology parameters” value [3] of the same substance?
Its value is “No toxicity or safety concerns”.
